The values that follow come from patent US10188108B2, “Fused bicyclic heterocycle derivatives as pesticides” (BAYER CROPSCIENCE AKTIENGESELLSCHAFT, priority 2015, dated 2019).

Read-outs that look alike come from different tables or passages of the source.

Series [1] in a line: log P by HPLC on a reversed-phase column (C 18), EEC Directive 79/831 Annex V.A8. The settings on record: for LOGP_NEUTRAL: pH 7.8, 0.001 molar aqueous ammonium hydrogencarbonate/acetonitrile; for chromatographic logP: reversed-phase HPLC column (C 18). Type of series: physicochemical. Here is the method: The log P values are measured according to EEC Directive 79/831 Annex V.A8 by HPLC (high-performance liquid chromatography) on a reversed-phase column (C 18). Temperature: 55° C.
The LC-MS determination in the acidic range is effected at pH 2.7 using 0.1% aqueous formic acid and acetonitrile (contains 0.1% formic acid) as eluents; linear gradient from 10% acetonitrile to 95% acetonitrile. Called log P (HCOOH) in the table.
LC-MS determination in the neutral range is effected at pH 7.8 with 0.001 molar aqueous ammonium hydrogencarbonate solution and acetonitrile as eluents; linear gradient from 10% acetonitrile to 95% acetonitrile. Called log P (neutral) in the table.
Calibration is carried out using unbranched alkan-2-ones (having 3 to 16 carbon atoms) with known log P values (log P values determined on the basis of the retention times by linear interpolation between two successive alkanones).

The subject of another series is Myzus persicae. The series can be described thus: Myzus persicae - spray test (Chinese cabbage leaf discs). The class given is in vivo. To be noted: 500 g/ha, after 5-6 days. The method, then: • Solvent: 78 parts by weight of acetone • 1.5 parts by weight of dimethylformamide • Emulsifier: alkylaryl polyglycol ether
(§1) To produce a suitable preparation of active compound, 1 part by weight of active compound is dissolved using the stated parts by weight of solvent and made up with water containing an emulsifier concentration of 1000 ppm until the desired concentration is attained. To produce further test concentrations, the preparation is diluted with emulsifier-containing water.
Discs of Chinese cabbage leaves (Brassica pekinensis) infested by all stages of the green peach aphid (Myzus persicae) are sprayed with an active compound preparation of the desired concentration.
After 5-6 days, the efficacy in % is determined. 100% means that all the aphids have been killed; 0% means that no aphids have been killed.

The subject of the next series is Phaedon cochleariae. The series can be described thus: Phaedon cochleariae - spray test. Type of series: in vivo. The settings on record: 500 g/ha, after 7 days, larvae on Chinese cabbage leaf discs. The method, then: (§2) • Solvent: 78.0 parts by weight of acetone • 1.5 parts by weight of dimethylformamide • Emulsifier: alkylaryl polyglycol ether
as §1
After 7 days, the efficacy in % is determined. 100% means that all the beetle larvae have been killed; 0% means that no beetle larvae have been killed.

The next series relates to Spodoptera frugiperda. Briefly: Spodoptera frugiperda - spray test. The class given is in vivo. To be noted: 500 g/ha, after 7 days, caterpillars on maize leaf discs. Here is the method: as §2, §1
Leaf discs of maize (Zea mays) are sprayed with an active compound preparation of the desired concentration and, after drying, populated with caterpillars of the armyworm (Spodoptera frugiperda).
After 7 days, the efficacy in % is determined. 100% means that all the caterpillars have been killed; 0% means that no caterpillars have been killed.

Series [2] relates to Ctenocephalides felis. The series can be described thus: Ctenocephalides felis - in vitro contact tests with adult cat fleas. To be noted: 5 μg/cm^2 (=500 g/ha), after 48 h, adult cat fleas dead or moribund. The class given is in vivo. The method, then: For the coating of the test tubes, 9 mg of active compound are first dissolved in 1 ml of acetone p.a. and then diluted to the desired concentration with acetone p.a. 250 μl of the solution are distributed homogeneously on the inner walls and the base of a 25 ml test tube by turning and rocking on an orbital shaker (rocking rotation at 30 rpm for 2 h). With 900 ppm active compound solution and internal surface 44.7 cm^2, given homogeneous distribution, an area-based dose of 5 μg/cm^2 is achieved.
After the solvent has evaporated off, the tubes are populated with 5-10 adult cat fleas (Ctenocephalides felis), sealed with a perforated plastic lid and incubated in a horizontal position at room temperature and ambient humidity. After 48 h, efficacy is determined. To this end, the test tubes are stood upright and the fleas are knocked to the base of the tube. Fleas which remain motionless at the base or move in an uncoordinated manner are considered to be dead or moribund.
100% efficacy means that all the fleas were dead or moribund. 0% efficacy means that no fleas were harmed.

Series [3] deals with Ctenocephalides felis. The series can be described thus: Ctenocephalides felis - oral test. The class given is in vivo. The settings on record: 100 ppm in citrated cattle blood, after 2 days, adult cat fleas. Here is the method:
• Solvent: dimethyl sulphoxide To produce a suitable preparation of active compound, 10 mg of active compound are mixed with 0.5 ml of dimethyl sulphoxide. Dilution with citrated cattle blood gives the desired concentration. About 20 unfed adult cat fleas (Ctenocephalides felis) are placed into a chamber which is closed at the top and bottom with gauze. A metal cylinder whose bottom end is closed with parafilm is placed onto the chamber. The cylinder contains the blood/active compound preparation, which can be imbibed by the fleas through the parafilm membrane. After 2 days, the kill in % is determined. 100% means that all of the fleas have been killed; 0% means that none of the fleas have been killed.

For another series, the system named is Lucilia cuprina. The series can be described thus: Lucilia cuprina test. Type of series: in vivo. To be noted: 100 ppm, after 2 days, L1 larvae. The method, then:
• Solvent: dimethyl sulphoxide To produce a suitable preparation of active compound, 10 mg of active compound are mixed with 0.5 ml of dimethyl sulphoxide, and the concentrate is diluted with water to the desired concentration. About 20 L1 larvae of the Australian sheep blowfly (Lucilia cuprina) are transferred into a test vessel containing minced horsemeat and the active compound preparation of the desired concentration. After 2 days, the kill in % is determined. 100% means that all the larvae have been killed; 0% means that no larvae have been killed.

The next series deals with Musca domestica. The series can be described thus: Musca domestica test. To be noted: 4 ppm, after 2 days, adult houseflies. The class given is in vivo. Here is the method: • Solvent: dimethyl sulphoxide To produce a suitable preparation of active compound, 10 mg of active compound are mixed with 0.5 ml of dimethyl sulphoxide, and the concentrate is diluted with water to the desired concentration. Vessels containing a sponge treated with sugar solution and the active compound preparation of the desired concentration are populated with 10 adult houseflies (Musca domestica). After 2 days, the kill in % is determined. 100% means that all of the flies have been killed; 0% means that none of the flies have been killed.

[4] abbreviates: acidic range, pH 2.7, 0.1% aqueous formic acid/acetonitrile, 55° C.
Where [5] appears, read: acidic range, pH 2.7, 0.1% aqueous formic acid/acetonitrile, 55° C., read-out: LOGP_HCOOH.
[6] abbreviates: neutral range, pH 7.8, value in preparation example text, read-out: log P (neutral).

Compound `CC[S+]([O-])c1c(-c2nc3cc(C(F)(F)F)ccc3n2C)nc2ccccn12` (centres unmarked) [Example I-11] had an LOGP_HCOOH in series [1] (setting [4]) of 2.92. The compound further gave an LOGP_NEUTRAL in series [1] (neutral range, 55° C.) of 2.85. The efficacy in the series on Myzus persicae was determined as 90%; with Phaedon cochleariae it was 100%; in the series with Spodoptera frugiperda, 100%.
Take `CCS(=O)(=O)c1c(-c2nc3cc(C(F)(F)F)ccc3n2C)nc2cc(C)ccn12` [Example I-33]: in series [1] (setting [4]), the LOGP_HCOOH worked out at 3.01. The figures for the efficacy with Ctenocephalides felis [2] and in the series with Spodoptera frugiperda were 100% and 83%, respectively.
`CCS(=O)(=O)c1c(-c2nc3cc(C(F)(F)F)ncc3n2C)nc2ccc(C)cn12` [Example I-48] yielded an LOGP_HCOOH in series [1] (setting [4]) of 2.43. In addition, in series [1] (neutral range, 55° C.), the LOGP_NEUTRAL was 2.36. Further, the efficacy was found to be 90% in the series on Myzus persicae and 100% in the series on Spodoptera frugiperda.
In series [1] (setting [4]), `CCS(=O)(=O)c1c(-c2nc3cc(C(F)(F)F)ncc3n2C)nc2ccc(OC)cn12` [Example I-54] came in with an LOGP_HCOOH of 2.41. In series [1] (neutral range, 55° C.), this compound gave an LOGP_NEUTRAL of 2.37. Moreover, the efficacy in the series with Myzus persicae was 90%; with Spodoptera frugiperda it was 100%.
On to `CCS(=O)(=O)c1c(-c2nc3cc(C(F)(F)F)ccc3n2C)nc2cc(C(F)(F)F)ccn12` [Example I-34], for which the LOGP_HCOOH in series [1] (setting [4]) is recorded as 3.72. Further, the efficacy in the series on Ctenocephalides felis [2], in the series on Phaedon cochleariae and in the series with Spodoptera frugiperda was 100% throughout.
`CCS(=O)(=O)c1c(-c2nc3cc(C(F)(F)F)ncc3n2C)nc2cccc(C(F)(F)F)n12` [Example I-21] returned an LOGP_HCOOH in series [1] (setting [4]) of 2.69. Also, the LOGP_NEUTRAL in series [1] (neutral range, 55° C.) is listed as 2.66. In addition, the efficacy with Myzus persicae, in the series on Phaedon cochleariae and in the series on Spodoptera frugiperda was 100% each time.
With `CCS(=O)(=O)c1c(-c2nc3cc(C(F)(F)F)ncc3n2C)nc2ccc(Cl)cn12` [Example I-4], the LOGP_HCOOH in series [1] (setting [4]) came out at 2.67. The compound further yielded an LOGP_NEUTRAL in series [1] (neutral range, 55° C.) of 2.61. Moreover, the efficacy was determined as 100% with Ctenocephalides felis [2], 90% with Myzus persicae and 100% with Spodoptera frugiperda. Besides, the “efficacy (kill)” value in the series with Ctenocephalides felis [3] is listed as 90%; in the series with Lucilia cuprina, 100%; with Musca domestica, 80%.
`CC[S+]([O-])c1c(-c2nc3cc(C(F)(F)F)ncc3n2C)nc2cccc(C(F)(F)F)n12` (centres unmarked) [Example I-22] registered an LOGP_HCOOH in series [1] (setting [4]) of 2.30. Moreover, in series [1] (neutral range, 55° C.), the LOGP_NEUTRAL is 2.30. Also, the efficacy with Myzus persicae was 90%; with Phaedon cochleariae it was 100%.
As to `CC[S+]([O-])c1c(-c2nc3cc(C(F)(F)F)ncc3n2C)nc2ccc(Cl)cn12` (centres unmarked) [Example I-7], the LOGP_HCOOH in series [1] (setting [4]) was 2.93. Further, the LOGP_NEUTRAL in series [1] (neutral range, 55° C.) amounted to 2.83. Also, the efficacy is 90% in the series with Myzus persicae and 100% with Spodoptera frugiperda.
In series [1] (setting [4]), `CCS(=O)(=O)c1c(-c2nc3cc(C(F)(F)F)ncc3n2C)nc2cc(Cl)ccn12` [Example I-23] came in with an LOGP_HCOOH of 2.66. In addition, the LOGP_NEUTRAL in series [1] (neutral range, 55° C.) came to 2.64. Moreover, the efficacy in the series on Ctenocephalides felis [2], in the series with Phaedon cochleariae and with Spodoptera frugiperda was 100% each time.
For `CCSc1c(-c2nc3cc(C(F)(F)F)ncc3n2C)nc2ccccn12` [Example I-2, 2-(3-Ethylsulphanylimidazo[1,2-a]pyridin-2-yl)-3-methyl-6-(trifluoromethyl)imidazo[4,5-c]pyridine], the LOGP_NEUTRAL in series [1] (neutral range, 55° C.) was determined as 2.75. In addition, the figures for the chromatographic logP in series [1] (setting [5]) and in series [1] (setting [6]) were 2.84 and 2.75, respectively. This compound also gave an efficacy with Myzus persicae of 90%.
Take `CCS(=O)(=O)c1c(-c2nc3cc(C(F)(F)F)cnc3n2C)nc2ccc(C)cn12` [Example I-53]: the LOGP_HCOOH in series [1] (setting [4]) was 2.84. In addition, the LOGP_NEUTRAL in series [1] (neutral range, 55° C.) is on record as 2.78. Also, the efficacy with Myzus persicae and in the series with Spodoptera frugiperda was 100% each time.
In turn, `CCS(=O)(=O)c1cccn2c(S(=O)(=O)CC)c(-c3nc4cc(C(F)(F)F)ncc4n3C)nc12` [Example I-39] displayed an LOGP_HCOOH in series [1] (setting [4]) of 2.30. This compound came in with an LOGP_NEUTRAL in series [1] (neutral range, 55° C.) of 2.29. In addition, the efficacy in the series on Phaedon cochleariae and in the series on Spodoptera frugiperda was 100% throughout.
`CCS(=O)(=O)c1c(-c2nc3cc(C(F)(F)F)ccc3n2C)nc2cccc(C)n12` [Example I-46]: in series [1] (setting [4]), the LOGP_HCOOH turned out to be 2.73. In addition, the efficacy in the series with Myzus persicae is on record as 90%; in the series on Phaedon cochleariae, 83%.
In series [1] (setting [4]), `CCS(=O)(=O)c1c(-c2nc3cc(C(F)(F)F)ncc3n2C)nc2c(Cl)cccn12` [Example I-19] showed an LOGP_HCOOH of 2.56. In series [1] (neutral range, 55° C.), the LOGP_NEUTRAL is reported as 2.50. In addition, the efficacy in the series with Myzus persicae was 90%; with Phaedon cochleariae, 100%; with Spodoptera frugiperda it was 100%.
On to `CCSc1c(-c2nc3cc(C(F)(F)F)ccc3n2C)nc2cc(C(F)(F)F)ccn12` [Example I-30], for which, in series [1] (setting [4]), the LOGP_HCOOH amounted to 4.50. Further, the values for the efficacy with Phaedon cochleariae and with Spodoptera frugiperda were 83% and 100%, respectively.
Regarding `CCS(=O)(=O)c1c(-c2nc3cc(C(F)(F)F)cnc3o2)nc2ccccn12` [Example I-44, 2-[3-(Ethylsulphonyl)imidazo[1,2-a]pyridin-2-yl]-6-(trifluoromethyl) [1,3]oxazolo[5,4-b]pyridine], the LOGP_HCOOH in series [1] (setting [4]) is given as 2.53. For the same compound, in series [1] (neutral range, 55° C.), the LOGP_NEUTRAL was 2.52. In series [1] (setting [6]), the chromatographic logP is 2.52. Also, the efficacy stood at 100% in the series with Phaedon cochleariae and 83% with Spodoptera frugiperda.
`CCS(=O)(=O)c1c(-c2nc3cc(C(F)(F)F)cnc3o2)nc2ccc(C(F)(F)F)cn12` [Example I-47] came in with an LOGP_HCOOH in series [1] (setting [4]) of 3.51. The efficacy was found to be 100% with Phaedon cochleariae and 83% in the series with Spodoptera frugiperda.
With `CCS(=O)(=O)c1c(-c2nc3cc4c(cc3n2C)OC(F)(F)O4)nc2ccccn12` [Example I-41, 6-[3-(Ethylsulphonyl)imidazo[1,2-a]pyridin-2-yl]-2,2-difluoro-5-methyl-5H-[1,3]dioxolo[4,5-f]benzimidazole], the LOGP_NEUTRAL in series [1] (neutral range, 55° C.) worked out at 2.62. Moreover, the chromatographic logP is 2.59 in series [1] (setting [5]) and 2.62 in series [1] (setting [6]). Besides, the efficacy amounted to 90% in the series on Myzus persicae, 100% with Phaedon cochleariae and 83% in the series with Spodoptera frugiperda.
